Values joined by “and” are separate entries in the source; they are usually repeats but may differ in a detail not shown here. Equal values may be shown once. Active and inactive are the calls of the source.
Experiments:
Cytochrome P450 2C9 = Cytochrome P450 2C9 (Homo sapiens, UniProt P11712)
Cytochrome P450 1A2 = molecular target: T1, Cytochrome P450 1A2 (Homo sapiens, UniProt P05177);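 further: PubChem cytochrome P450 panel assay, CYP1A2 panel member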
T1 sequence (P05177 whole entry): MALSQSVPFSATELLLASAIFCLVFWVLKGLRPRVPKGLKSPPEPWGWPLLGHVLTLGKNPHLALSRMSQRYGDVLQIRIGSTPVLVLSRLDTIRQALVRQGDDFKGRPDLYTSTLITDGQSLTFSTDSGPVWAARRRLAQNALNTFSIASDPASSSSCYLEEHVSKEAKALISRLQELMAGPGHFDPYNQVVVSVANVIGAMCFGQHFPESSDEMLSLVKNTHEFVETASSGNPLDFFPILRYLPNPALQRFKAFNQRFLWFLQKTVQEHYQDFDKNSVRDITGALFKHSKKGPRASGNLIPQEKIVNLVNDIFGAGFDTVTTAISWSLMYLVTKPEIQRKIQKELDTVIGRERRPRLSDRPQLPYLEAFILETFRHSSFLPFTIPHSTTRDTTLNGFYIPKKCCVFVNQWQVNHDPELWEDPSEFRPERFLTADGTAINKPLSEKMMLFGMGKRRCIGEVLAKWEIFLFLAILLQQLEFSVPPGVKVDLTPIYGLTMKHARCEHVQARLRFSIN

[1] = molecular target: T2, Calpain-2 catalytic subunit (Sus scrofa, UniProt P43367); assay: m-calpain protease blockers, concentration series – biochemical, fluorogenic peptide substrate, dose response (AID 1420); assay type: functional
T2 sequence (P43367 whole entry): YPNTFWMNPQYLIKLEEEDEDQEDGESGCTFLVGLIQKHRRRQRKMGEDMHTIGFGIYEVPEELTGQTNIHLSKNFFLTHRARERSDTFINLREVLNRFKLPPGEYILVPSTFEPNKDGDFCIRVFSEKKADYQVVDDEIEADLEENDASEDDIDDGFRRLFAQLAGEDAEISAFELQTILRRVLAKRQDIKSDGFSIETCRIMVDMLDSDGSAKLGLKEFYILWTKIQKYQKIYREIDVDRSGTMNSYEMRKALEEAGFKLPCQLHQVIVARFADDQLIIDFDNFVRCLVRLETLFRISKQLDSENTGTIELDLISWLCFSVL

Cytochrome P450 3A4 = Cytochrome P450 3A4 (Homo sapiens, UniProt P08684);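 further: CYP3A4 tested as one member of a cytochrome P450 panel screen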
Sequence of Cytochrome P450 3A4 (P08684 whole entry): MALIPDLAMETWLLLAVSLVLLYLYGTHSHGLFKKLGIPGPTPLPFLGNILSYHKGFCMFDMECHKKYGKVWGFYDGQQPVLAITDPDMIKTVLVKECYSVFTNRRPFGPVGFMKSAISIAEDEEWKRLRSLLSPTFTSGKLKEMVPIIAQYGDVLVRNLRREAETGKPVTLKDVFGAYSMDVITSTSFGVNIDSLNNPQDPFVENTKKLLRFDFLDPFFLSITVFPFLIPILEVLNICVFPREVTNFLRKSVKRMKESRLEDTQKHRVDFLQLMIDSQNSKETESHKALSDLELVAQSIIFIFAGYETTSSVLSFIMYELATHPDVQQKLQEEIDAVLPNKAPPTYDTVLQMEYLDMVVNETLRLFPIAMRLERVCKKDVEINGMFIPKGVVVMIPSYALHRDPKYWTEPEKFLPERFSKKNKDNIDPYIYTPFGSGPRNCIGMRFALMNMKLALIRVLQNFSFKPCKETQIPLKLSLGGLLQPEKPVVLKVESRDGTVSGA

[2] = molecular target: T3, Polyadenylate-binding protein 1 (Homo sapiens, UniProt P11940); assay: MLLE binding blockers, Cy5 peptide tracer – biochemical, fluorescence polarization, Cy5-PAM2 peptide, secondary, miRNA deadenylation inhibitor project, dose response (AID 602260); assay type: functional; settings: read-out: IC50_Mean
T3 sequence (P11940 whole entry, the tested form may be a part): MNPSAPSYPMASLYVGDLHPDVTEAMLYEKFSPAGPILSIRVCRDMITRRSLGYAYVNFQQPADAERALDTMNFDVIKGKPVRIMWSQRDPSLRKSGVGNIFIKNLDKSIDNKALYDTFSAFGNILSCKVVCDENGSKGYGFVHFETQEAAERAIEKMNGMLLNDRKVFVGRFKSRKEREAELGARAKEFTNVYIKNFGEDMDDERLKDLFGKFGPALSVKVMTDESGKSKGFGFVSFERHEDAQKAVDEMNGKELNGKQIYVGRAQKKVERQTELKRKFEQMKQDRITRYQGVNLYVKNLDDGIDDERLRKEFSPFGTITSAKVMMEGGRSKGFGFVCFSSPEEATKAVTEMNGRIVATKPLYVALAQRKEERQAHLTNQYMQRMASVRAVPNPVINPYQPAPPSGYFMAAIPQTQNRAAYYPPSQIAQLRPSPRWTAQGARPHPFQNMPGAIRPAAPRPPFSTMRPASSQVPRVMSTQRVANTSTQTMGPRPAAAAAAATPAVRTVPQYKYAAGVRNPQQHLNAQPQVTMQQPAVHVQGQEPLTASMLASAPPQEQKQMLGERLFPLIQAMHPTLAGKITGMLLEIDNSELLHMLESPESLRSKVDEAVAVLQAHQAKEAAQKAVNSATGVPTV

[3] = molecular target: T3, Polyadenylate-binding protein 1; assay: MLLE domain peptide-binding blockers, IC50 – biochemical, fluorescence polarization, FITC-PAM2 peptide, dose response (AID 602259); assay type: functional; settings: read-out: IC50_Mean
Protein skinhead-1 = molecular target: T4, Protein skinhead-1 (Caenorhabditis elegans, UniProt P34707); assay type: functional
T4 sequence (P34707 whole entry): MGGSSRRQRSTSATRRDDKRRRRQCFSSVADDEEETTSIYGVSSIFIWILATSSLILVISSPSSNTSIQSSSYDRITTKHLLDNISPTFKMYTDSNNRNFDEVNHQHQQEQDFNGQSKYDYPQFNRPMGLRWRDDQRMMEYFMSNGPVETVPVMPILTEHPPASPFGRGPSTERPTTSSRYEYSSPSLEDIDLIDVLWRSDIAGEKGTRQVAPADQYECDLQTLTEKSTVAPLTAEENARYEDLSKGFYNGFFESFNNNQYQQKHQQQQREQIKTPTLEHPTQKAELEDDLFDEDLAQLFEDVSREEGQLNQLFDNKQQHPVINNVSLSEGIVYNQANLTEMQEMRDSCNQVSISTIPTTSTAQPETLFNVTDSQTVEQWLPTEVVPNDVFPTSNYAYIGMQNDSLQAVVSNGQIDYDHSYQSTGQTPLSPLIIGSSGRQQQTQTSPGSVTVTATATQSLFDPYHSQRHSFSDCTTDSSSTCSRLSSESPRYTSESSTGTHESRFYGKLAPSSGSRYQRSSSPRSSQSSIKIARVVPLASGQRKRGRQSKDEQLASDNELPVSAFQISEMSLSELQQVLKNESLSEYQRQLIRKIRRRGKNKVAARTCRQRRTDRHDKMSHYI

[4] = molecular target: T5, Short transient receptor potential channel 4 (Mus musculus, UniProt Q9QUQ5); assay: block of DAMGO-driven TRPC4 calcium entry – cell-based, HEK293 TRPC4/mu-opioid, Fluo-4 calcium, dose response (AID 434942); assay type: functional;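 further: potency of inhibitors blocking the TRPC4 calcium response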
T5 sequence (Q9QUQ5 whole entry): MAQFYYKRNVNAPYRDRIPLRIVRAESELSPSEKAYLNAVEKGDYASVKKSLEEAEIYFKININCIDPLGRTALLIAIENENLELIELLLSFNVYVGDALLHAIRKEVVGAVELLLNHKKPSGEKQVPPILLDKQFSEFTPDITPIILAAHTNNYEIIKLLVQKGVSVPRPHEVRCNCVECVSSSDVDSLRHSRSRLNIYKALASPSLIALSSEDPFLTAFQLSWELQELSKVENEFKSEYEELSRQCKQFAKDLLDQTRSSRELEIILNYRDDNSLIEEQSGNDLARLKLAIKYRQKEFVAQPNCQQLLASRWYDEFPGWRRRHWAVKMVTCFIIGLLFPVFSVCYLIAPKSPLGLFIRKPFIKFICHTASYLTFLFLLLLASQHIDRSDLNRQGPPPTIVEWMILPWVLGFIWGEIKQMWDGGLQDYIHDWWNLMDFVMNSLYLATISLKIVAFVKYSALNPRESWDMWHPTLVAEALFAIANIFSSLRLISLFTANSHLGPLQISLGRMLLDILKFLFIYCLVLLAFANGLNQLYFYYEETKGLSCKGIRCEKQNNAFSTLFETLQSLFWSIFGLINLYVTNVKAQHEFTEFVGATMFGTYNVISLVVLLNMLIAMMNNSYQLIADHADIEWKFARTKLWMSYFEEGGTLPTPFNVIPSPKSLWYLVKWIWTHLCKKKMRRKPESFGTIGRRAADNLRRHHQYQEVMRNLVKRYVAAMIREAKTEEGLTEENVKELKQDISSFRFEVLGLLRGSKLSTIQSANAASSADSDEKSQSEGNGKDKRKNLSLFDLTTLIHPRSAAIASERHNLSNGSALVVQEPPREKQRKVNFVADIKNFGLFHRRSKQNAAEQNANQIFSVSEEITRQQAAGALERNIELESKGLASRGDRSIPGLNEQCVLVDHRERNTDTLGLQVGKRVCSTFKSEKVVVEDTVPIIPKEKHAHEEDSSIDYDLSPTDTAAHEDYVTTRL

Cytochrome P450 2C19 = Cytochrome P450 2C19 (Homo sapiens, UniProt P33261); assay: Cytochrome panel assay with activity outcomes. Panel member name: p450-cyp2c19 Compounds with AC50 equal or less than 10 uM are considered active; assay type: functional
Sequence of Cytochrome P450 2C19 (P33261 whole entry): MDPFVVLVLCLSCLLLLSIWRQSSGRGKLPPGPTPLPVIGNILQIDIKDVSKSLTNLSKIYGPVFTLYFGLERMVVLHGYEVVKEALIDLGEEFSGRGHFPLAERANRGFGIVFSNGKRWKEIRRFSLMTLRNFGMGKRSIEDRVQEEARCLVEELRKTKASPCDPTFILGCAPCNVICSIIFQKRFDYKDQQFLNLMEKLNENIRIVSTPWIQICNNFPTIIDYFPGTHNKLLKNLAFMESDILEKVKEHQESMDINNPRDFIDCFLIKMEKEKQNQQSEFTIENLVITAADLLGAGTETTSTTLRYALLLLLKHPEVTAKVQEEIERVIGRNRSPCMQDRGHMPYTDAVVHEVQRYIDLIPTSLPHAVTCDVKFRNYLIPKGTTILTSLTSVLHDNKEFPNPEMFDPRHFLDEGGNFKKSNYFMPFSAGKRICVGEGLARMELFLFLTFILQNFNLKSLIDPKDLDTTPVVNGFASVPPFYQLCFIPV

[5] = THP-1 cell cytotoxicity, dose response, cytotoxicity control for non-replicating M. tuberculosis project (AID 489025); assay type: functional
[6] = Vero E6 cell cytotoxicity, dose response, cytotoxicity control for non-replicating M. tuberculosis project, secondary assay (AID 492998); assay type: functional, VeroE6; settings: Vero C1008
cells = assay type: functional
[7] = A549 cell cytotoxicity, dose response, cytotoxicity control, plate reader, cherry-pick, antagonist series (AID 743412); assay type: functional, cell-based
[8] = toxicity toward HepG2 liver cells – cell-based, plate reader, cherry-pick, antagonist series, cytotoxicity control, dose response (AID 743416); assay type: functional
[9] = blockade of melanocortin 4 receptor signaling – cell-based, plate reader, cherry pick, counter-screen for LGR2 antagonist project, dose response (AID 743444); assay type: functional;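 further: transfected HEK 293 cells stimulated with alpha-MSH peptide; potency of inhibitors of the alpha-MSH evoked signal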
[10] = viability loss in HEK293 cells – cell-based, plate reader, cherry-picked samples, cytotoxicity control, dose response (AID 743446); assay type: functional
INS1 = assay: INS-1E survival protection against cytokine death – cell-based, luminescence, retest, dose response (AID 449756); assay type: functional; settings: Rattus norvegicus;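 further: cell death triggered by IL-1 beta plus TNF-alpha plus IFN-gamma mixture; protective hits raise ATP signal compared with cytokine alone wells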
[11] = blockers of bursicon-stimulated LGR2 cAMP reporter – cell-based, HEK293, CRE-luciferase reporter, cherry pick, set 2, dose response (AID 743343); assay type: functional;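 further: transfected cells were stimulated with diluted bursicon conditioned medium after compound addition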
Vero = assay: cells; assay type: functional; settings: Chlorocebus sabaeus
Cytochrome P450 2D6 = Cytochrome P450 2D6 (Homo sapiens, UniProt P10635);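 further: CYP2D6 member of a cytochrome P450 panel assay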
Sequence of Cytochrome P450 2D6 (P10635 whole entry): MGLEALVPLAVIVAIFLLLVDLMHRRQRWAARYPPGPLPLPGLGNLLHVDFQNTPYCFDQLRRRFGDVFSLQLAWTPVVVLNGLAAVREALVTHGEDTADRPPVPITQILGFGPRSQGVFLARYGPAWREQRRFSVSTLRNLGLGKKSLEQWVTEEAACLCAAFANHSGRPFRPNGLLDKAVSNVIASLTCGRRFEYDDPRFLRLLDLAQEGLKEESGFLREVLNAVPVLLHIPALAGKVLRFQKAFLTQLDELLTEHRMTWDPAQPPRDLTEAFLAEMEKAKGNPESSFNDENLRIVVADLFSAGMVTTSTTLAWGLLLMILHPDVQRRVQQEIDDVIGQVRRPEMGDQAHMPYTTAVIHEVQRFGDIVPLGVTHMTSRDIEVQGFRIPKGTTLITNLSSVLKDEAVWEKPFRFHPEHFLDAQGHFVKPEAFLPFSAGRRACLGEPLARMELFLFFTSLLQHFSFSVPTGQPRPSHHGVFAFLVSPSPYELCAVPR

Sequence of Cytochrome P450 2C9 (P11712 whole entry): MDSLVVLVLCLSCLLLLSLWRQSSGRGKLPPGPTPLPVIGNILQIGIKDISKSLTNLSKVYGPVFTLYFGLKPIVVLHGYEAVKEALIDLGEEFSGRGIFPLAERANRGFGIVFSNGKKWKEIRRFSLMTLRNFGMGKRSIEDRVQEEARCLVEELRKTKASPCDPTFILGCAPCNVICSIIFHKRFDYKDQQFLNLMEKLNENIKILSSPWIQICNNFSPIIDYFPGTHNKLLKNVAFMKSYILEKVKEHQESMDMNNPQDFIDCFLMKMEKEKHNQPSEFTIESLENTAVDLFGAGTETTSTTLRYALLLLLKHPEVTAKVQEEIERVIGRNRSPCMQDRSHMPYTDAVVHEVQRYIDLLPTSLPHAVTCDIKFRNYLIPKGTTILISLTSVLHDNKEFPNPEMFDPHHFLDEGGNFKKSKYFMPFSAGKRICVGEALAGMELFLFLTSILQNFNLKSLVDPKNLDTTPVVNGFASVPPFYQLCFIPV

SMILES: Cc1ccccc1C(=O)Nc1ccc(N2CCOCC2)nc1
- AC50 (Cytochrome P450 2C9): inconclusive
- AC50 (Cytochrome P450 1A2): 17.8 µM (inconclusive)

SMILES: Cc1c(C#N)c(=O)oc2ccc3ccccc3c12
- AC50 (Cytochrome P450 2C9): inconclusive

SMILES: CCc1ccc(CNCc2cccnc2)cc1
- IC50 [1]: 0.454 µM (not active)

SMILES: CC(C)CN1CCCC2(CCN(C(=O)c3ccco3)CC2)C1
- AC50 (Cytochrome P450 2C9): inconclusive
- AC50 (Cytochrome P450 3A4): 31.6 µM (inconclusive)

SMILES: CCOC(=O)C(CSCC(=O)c1ccc(Cl)cc1Cl)NC(=O)OC(C)(C)C (centres undefined)
- IC50 [2]: > 66 µM (inactive)
- IC50 [3]: > 66 µM (inactive)
- IC50 (Protein skinhead-1): > 100 µM (inactive)

SMILES: CCOC(=O)c1c(NC(=O)C2CC(Cl)=CCC2C(=O)O)sc2c1CCCCC2 (centres undefined)
- EC50 [4]: 6.68 µM (active)

SMILES: Cc1cc(SC(C)C(=O)Nc2c(C)n(C)n(-c3ccccc3)c2=O)nc2ccccc12 (centres undefined)
- AC50 (Cytochrome P450 2C19; read-out: AC50): 11.2 µM (inconclusive)
- AC50 (Cytochrome P450 2C9): inconclusive

SMILES: CN(Cc1ccccc1)C(=O)c1ccc([N+](=O)[O-])o1
- CC50 [5]: > 40 µM (active)
- CC50 [6]: 19.4 µM (active)
- IC50 (cells): 360 nM (active)

SMILES: O=C(NN1C(=O)c2ccccc2NC1c1ccco1)c1ccc([N+](=O)[O-])cc1 (centres undefined)
- IC50 [1]: 10.6 µM (not active)

SMILES: Cc1cc(NC(=O)c2ccccc2Cl)c(C(C)C)cc1O
- AC50 (Cytochrome P450 2C9): inconclusive

SMILES: Cc1ccc2nc(NC(=O)c3ccccn3)sc2c1
- CC50 [5]: 10.7 µM (active)
- AC50 [7]: 4.99 µM (active)
- AC50 [8]: 9.65 µM (active)
- AC50 [9]: 582 nM (active)
- AC50 [10]: 14 µM (active)
- AC50 (INS1): 2.19 µM (active)
- CC50 [6]: 7.23 µM (active)
- AC50 [11]: 737 nM (active)
- CC50 (Vero): 11.3 µM (active)
- IC50 (cells): 630 nM (active)

SMILES: Cc1ccccc1C(=O)NC1CC2CCC(C1)N2Cc1ccccc1 (centres undefined)
- EC50 [4]: 0.188 µM (active)

SMILES: Cc1c(Cl)c(S(N)(=O)=O)cc2c1N=CNS2(=O)=O
- AC50 (Cytochrome P450 2D6): 3.98 µM (inconclusive)
- AC50 (Cytochrome P450 2C9): inconclusive

SMILES: COc1ccc(/C=N/NC(=O)C2c3ccccc3Oc3ccccc32)c(OC)c1
- IC50 [1]: 10.9 µM (not active)

SMILES: CN(C)CCCN1c2ccccc2CCc2ccc(Cl)cc21 [CLOMIPRAMINE]
- AC50 (Cytochrome P450 2C19): inactive
- AC50 (Cytochrome P450 2C9): inactive
- AC50 (Cytochrome P450 1A2): 15.8 µM (active) and 5.01 µM (active) and 20 µM (inconclusive)
